# Assay results from paper PMC12396409, “Screening and hit evaluation of a microbial metabolite library against the pathogenic Plasmodium falciparum and Toxoplasma gondii parasites” (International Journal for Parasitology: Drugs and Drug …, 2025).
# Read-outs that look alike come from different tables or passages of the source.
# Legend:
# [1] = tested on: P. falciparum 3D7 parasites; assay: P. falciparum growth inhibition assay, 1-cycle (72 h treatment), SYBR DNA staining (library screen at 2 μg/mL and dose-response); format: cell-based, Plasmodium falciparum; settings: for activity at 2 µg/mL: Plasmodium falciparum
# [2] = tested on: P. falciparum 3D7 parasites; assay: P. falciparum growth inhibition assay, 2-cycle (120 h treatment), delayed-death screen and dose-response; format: cell-based, Plasmodium falciparum; settings: for activity at 2 µg/mL: Plasmodium falciparum
# [3] = tested on: T. gondii RH strain (RH-Tub-eYFP) tachyzoites; assay: microbe, parasite or virus in culture; format: cell-based, Toxoplasma gondii; settings: for percent parasite growth at 2 µg/mL: Toxoplasma gondii
# [4] = library screen at 2 μg/mL, 72 h, % growth, replicate 1
# [5] = library screen at 2 μg/mL, 72 h, % growth, replicate 2
# [6] = library screen at 2 μg/mL, 120 h, % growth, replicate 1
# [7] = library screen at 2 μg/mL, 120 h, % growth, replicate 2
# [8] = P. falciparum 3D7, 72 h, library screen at 2 μg/mL, % growth, replicate 1
# [9] = P. falciparum 3D7, 72 h, library screen at 2 μg/mL, % growth, replicate 2
# [10] = P. falciparum 3D7, 120 h, library screen at 2 μg/mL, % growth, replicate 1
# [11] = P. falciparum 3D7, 120 h, library screen at 2 μg/mL, % growth, replicate 2
# [12] = T. gondii RH, 72 h, library screen at 2 μg/mL, % growth, replicate 1
# [13] = T. gondii RH, 72 h, library screen at 2 μg/mL, % growth, replicate 2
# [14] = P. falciparum, 72 h, screen at 2 μg/mL, replicate 1
# [15] = P. falciparum, 72 h, screen at 2 μg/mL, replicate 2
# [16] = P. falciparum, 120 h, screen at 2 μg/mL, replicate 1
# [17] = P. falciparum, 120 h, screen at 2 μg/mL, replicate 2
# [18] = T. gondii, 72 h, screen at 2 μg/mL, replicate 1
# [19] = T. gondii, 72 h, screen at 2 μg/mL, replicate 2
# [20] = 72 h, T. gondii, 72 h, screen at 2 μg/mL, replicate 1, read-out: Tg_72h_%Growth_Rep1
# [21] = 72 h, T. gondii, 72 h, screen at 2 μg/mL, replicate 2, read-out: Tg_72h_%Growth_Rep2
molecule,measurement,setting,value
CCCCCC[C@H]1C(=O)O[C@H](C)[C@H](NC(=O)c2cccc(NC=O)c2O)C(=O)O[C@@H](C)[C@@H]1OC(=O)CC(C)C [Antimycin A1],Pf_72h_%Growth_Rep1,[1]; [4],7.57%
same,Pf_72h_%Growth_Rep2,[1]; [5],13.46%
same,Pf_120h_%Growth_Rep1,[2]; [6],-1.25%
same,Pf_120h_%Growth_Rep2,[2]; [7],6.08%
same,Tg_72h_%Growth_Rep1,[3]; [4],5.65%
same,Tg_72h_%Growth_Rep2,[3]; [5],4.89%
Cc1cc(O)cc(=O)o1 [BIA-H1736],Pf_72h_%Growth_Rep1,[1]; [8],86.06%
same,Pf_72h_%Growth_Rep2,[1]; [9],85.31%
same,Pf_120h_%Growth_Rep1,[2]; [10],102.52%
same,Pf_120h_%Growth_Rep2,[2]; [11],94.50%
same,Tg_72h_%Growth_Rep1,[3]; [12],113.92%
same,Tg_72h_%Growth_Rep2,[3]; [13],93.67%
CC[C@@H](C(=O)[C@@H](C)[C@@H](O)[C@H](C)[C@@H]1O[C@@H]([C@@H](CC)C(=O)O)CC[C@@H]1C)[C@H]1O[C@]2(C=C[C@@H](O)[C@]3(CC[C@@](C)([C@H]4CC[C@](O)(CC)[C@H](C)O4)O3)O2)[C@H](C)C[C@@H]1C [Salinomycin sodium],Pf_72h_%Growth_Rep1,"[1]; P. falciparum, 72 h, parasite screen 2 μg/mL, % growth, replicate 1",3.74%
same,Pf_72h_%Growth_Rep2,"[1]; P. falciparum, 72 h, parasite screen 2 μg/mL, % growth, replicate 2",-3.65%
same,Pf_120h_%Growth_Rep1,"[2]; P. falciparum, 120 h, parasite screen 2 μg/mL, % growth, replicate 1",8.77%
same,Pf_120h_%Growth_Rep2,"[2]; P. falciparum, 120 h, parasite screen 2 μg/mL, % growth, replicate 2",-2.16%
same,Tg_72h_%Growth_Rep1,"[3]; T. gondii, 72 h, parasite screen 2 μg/mL, % growth, replicate 1",1.25%
same,Tg_72h_%Growth_Rep2,"[3]; T. gondii, 72 h, parasite screen 2 μg/mL, % growth, replicate 2",0.43%
COc1oc(C2C/C(=C/C(C)=C/C(C)=C/C(C)=C/c3ccc([N+](=O)[O-])cc3)CO2)c(C)c(=O)c1C (stereo not drawn) [BIA-N1058],Pf_72h_%Growth_Rep1,"[1]; P. falciparum 3D7, 72 h, parasite screen at 2 μg/mL, % growth, replicate 1",9.38%
same,Pf_72h_%Growth_Rep2,"[1]; P. falciparum 3D7, 72 h, parasite screen at 2 μg/mL, % growth, replicate 2",10.75%
same,Pf_120h_%Growth_Rep1,"[2]; P. falciparum 3D7, 120 h, parasite screen at 2 μg/mL, % growth, replicate 1",17.59%
same,Pf_120h_%Growth_Rep2,"[2]; P. falciparum 3D7, 120 h, parasite screen at 2 μg/mL, % growth, replicate 2",18.76%
same,Tg_72h_%Growth_Rep1,"[3]; T. gondii, 72 h, parasite screen at 2 μg/mL, % growth, replicate 1",44.53%
same,Tg_72h_%Growth_Rep2,"[3]; T. gondii, 72 h, parasite screen at 2 μg/mL, % growth, replicate 2",72.88%
C=C1NC(=O)c2nc(oc2C)C(=C)NC(=O)[C@H](C(C)(C)O)NC(=O)C(=C)NC(=O)c2nc(oc2C)/C(=C/C)NC(=O)[C@H]([C@@H](C)O)NC(=O)c2csc(n2)-c2ccc(C(N)=O)nc2-c2coc(n2)C(=C)NC1=O [Berninamycin D],Pf_72h_%Growth_Rep1,[1]; [4],102.21%
same,Pf_72h_%Growth_Rep2,[1]; [5],89.93%
same,Pf_120h_%Growth_Rep1,[2]; [6],147.66%
same,Pf_120h_%Growth_Rep2,[2]; [7],98.89%
same,Tg_72h_%Growth_Rep1,[3]; [4],81.74%
same,Tg_72h_%Growth_Rep2,[3]; [5],94.54%
CC(C)C[C@@H]1NC(=O)[C@H](Cc2c[nH]c3ccccc23)NC1=O [Cyclo(L-Leu-L-Trp)],Pf_72h_%Growth_Rep1,[1]; [14],84.12%
same,Pf_72h_%Growth_Rep2,[1]; [15],86.68%
same,Pf_120h_%Growth_Rep1,[2]; [16],80.44%
same,Pf_120h_%Growth_Rep2,[2]; [17],87.76%
same,Tg_72h_%Growth_Rep1,[3]; [18],106.88%
same,Tg_72h_%Growth_Rep2,[3]; [19],106.90%
CC1(C)C=Cc2cc3ccc(=O)oc3cc2O1 [Xanthyletin],activity at 2 µg/mL,"[1]; 3D7, P. falciparum, 72 h, screen at 2 μg/mL, replicate 1, read-out: Pf_72h_%Growth_Rep1",88.6%
same,activity at 2 µg/mL,"[1]; 3D7, P. falciparum, 72 h, screen at 2 μg/mL, replicate 2, read-out: Pf_72h_%Growth_Rep2",22.4%
same,activity at 2 µg/mL,"[2]; 3D7, P. falciparum, 120 h, screen at 2 μg/mL, replicate 1, read-out: Pf_120h_%Growth_Rep1",106%
same,activity at 2 µg/mL,"[2]; 3D7, P. falciparum, 120 h, screen at 2 μg/mL, replicate 2, read-out: Pf_120h_%Growth_Rep2",81.1%
same,percent parasite growth at 2 µg/mL,[3]; [20],146%
same,percent parasite growth at 2 µg/mL,[3]; [21],65.7%
CCCCCCCCCCCCCCCc1cc(O)cc(O)c1 [Adipostatin A],Pf_72h_%Growth_Rep1,[1]; [4],85.82%
same,Pf_72h_%Growth_Rep2,[1]; [5],88.98%
same,Pf_120h_%Growth_Rep1,[2]; [6],83.04%
same,Pf_120h_%Growth_Rep2,[2]; [7],100.82%
same,Tg_72h_%Growth_Rep1,[3]; [4],103.30%
same,Tg_72h_%Growth_Rep2,[3]; [5],96.65%
CNc1ccc2oc(C[C@H]3O[C@@]4(CC[C@H]3C)O[C@H]([C@H](C)C(=O)c3ccc[nH]3)[C@H](C)C[C@H]4C)nc2c1C(=O)O [Calcimycin],activity at 2 µg/mL,"[1]; 3D7, 72 h, P. falciparum, 72 h, screen at 2 μg/mL, replicate 1, read-out: Pf_72h_%Growth_Rep1",13.1%
same,activity at 2 µg/mL,"[1]; 3D7, 72 h, P. falciparum, 72 h, screen at 2 μg/mL, replicate 2, read-out: Pf_72h_%Growth_Rep2",6.23%
same,activity at 2 µg/mL,"[2]; 3D7, 120 h, P. falciparum, 120 h, screen at 2 μg/mL, replicate 1, read-out: Pf_120h_%Growth_Rep1",11.6%
same,activity at 2 µg/mL,"[2]; 3D7, 120 h, P. falciparum, 120 h, screen at 2 μg/mL, replicate 2, read-out: Pf_120h_%Growth_Rep2",3.04%
same,percent parasite growth at 2 µg/mL,[3]; [20],1.82%
same,percent parasite growth at 2 µg/mL,[3]; [21],1.52%
"O=C(O)c1nccc2c1[nH]c1ccccc12 [Carboline 1-carboxylic acid, β-]",Pf_72h_%Growth_Rep1,[1]; [14],89.67%
same,Pf_72h_%Growth_Rep2,[1]; [15],90.01%
same,Pf_120h_%Growth_Rep1,[2]; [16],166.51%
same,Pf_120h_%Growth_Rep2,[2]; [17],96.73%
same,Tg_72h_%Growth_Rep1,[3]; [18],4.34%
same,Tg_72h_%Growth_Rep2,[3]; [19],7.03%
COc1cc(O)c2c(=O)oc3c(O)c(OC)cc(C)c3c2c1 [BIA-G1559],Pf_72h_%Growth_Rep1,[1]; [8],89.69%
same,Pf_72h_%Growth_Rep2,[1]; [9],92.13%
same,Pf_120h_%Growth_Rep1,[2]; [10],94.64%
same,Pf_120h_%Growth_Rep2,[2]; [11],147.16%
same,Tg_72h_%Growth_Rep1,[3]; [12],136.29%
same,Tg_72h_%Growth_Rep2,[3]; [13],91.52%
Diacetoxyscirpenol,Pf_72h_%Growth_Rep1,[1],9.42%
same,Pf_72h_%Growth_Rep2,[1],-2.86%
same,Pf_120h_%Growth_Rep1,[2],13.51%
same,Pf_120h_%Growth_Rep2,[2],-0.91%
same,Tg_72h_%Growth_Rep1,[3],-1.25%
same,Tg_72h_%Growth_Rep2,[3],-0.43%
